Assay results: publication PMC8219539 (Journal of Atherosclerosis and Thrombosis, 2020)

Target: S1P receptor 2 (S1P2/EDG-5) (Homo sapiens, UniProt O95136)
Assay: Fura2 intracellular Ca2+ assay
Format: cell-based

Chain of S1P receptor 2 (S1P2/EDG-5) (O95136 whole entry): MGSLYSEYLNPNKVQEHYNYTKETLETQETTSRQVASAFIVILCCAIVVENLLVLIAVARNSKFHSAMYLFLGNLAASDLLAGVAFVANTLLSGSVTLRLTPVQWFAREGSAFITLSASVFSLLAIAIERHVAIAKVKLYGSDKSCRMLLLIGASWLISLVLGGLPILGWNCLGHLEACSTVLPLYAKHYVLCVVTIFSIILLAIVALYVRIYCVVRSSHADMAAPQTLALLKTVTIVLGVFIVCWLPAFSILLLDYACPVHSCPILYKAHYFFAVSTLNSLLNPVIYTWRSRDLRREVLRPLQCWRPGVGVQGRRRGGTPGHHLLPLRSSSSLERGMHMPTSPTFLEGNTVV

IC50 [nM] | Compound
5.7 | ONO-5430514
5.3 | Cc1nn(C)c2nc(NNC(=O)Nc3c(Cl)cncc3Cl)cc(C(C)C)c12 [JTE-013]
